Reference: US20260285857A1, “BICYCLIC AND HETEROCYCLIC AMIDE COMPOUNDS” (priority 2024, published 2026)

test system: immunoglobulin light chain protein WIL-FL T46L; assay: Differential scanning fluorimetry (thermal shift) assay; assay type: binding; conditions: Table A; temperature shift [Tm]compound-[Tm]vehicle; recombinant WIL-FL T46L

Question: `Cc1cc(OC[C@H](C)c2ccccc2)cn2nc(C(=O)N3CCC4(CCN(c5cccc(C(=O)O)n5)C4)C3)nc12` (stereo partly drawn) [Compound 311] was tested. Which DSF did it give?
Answer: The DSF was “***** (>2.5° C.=*****)”.

Question: With `Cc1cc(OC[C@H](C)c2ccccc2)cn2nc(C(=O)O)nc12` [Compound 312] as the molecule, how does the DSF read?
Answer: The DSF was “**** (>1.5-2.5° C.=****)”.

Question: How did the DSF turn out when `Cc1cc(OC[C@H](C)c2ccccc2)cn2nc(C(=O)NC3CC4(CC(O)C4)C3)nc12` (stereo partly drawn) [Compound 313] was run?
Answer: Its DSF is “***** (>2.5° C.=*****)”.

Question: How did the DSF turn out when `Cc1cc(OC[C@H](C)c2ccccc2)cn2nc(C(=O)NC3CC4(C3)CC(N3CC5C(C3)C5C(=O)O)C4)nc12` (stereo partly drawn) [Compound 314] was run?
Answer: Its DSF is “***** (>2.5° C.=*****)”.

Question: With `Cc1cc(OC[C@H](C)c2ccccc2)cn2nc(C(=O)NC3CCC(C)(O)C3)nc12` (stereo partly drawn) [Compound 315] as the molecule, how does the DSF read?
Answer: Its DSF is “**** (>1.5-2.5° C.=****)”.

Question: With `Cc1cc(OC[C@H](C)c2ccccc2)cn2nc(C(=O)N3CCC(C)(O)C3)nc12` (stereo partly drawn) [Compound 316] as the molecule, how does the DSF read?
Answer: Its DSF is “**** (>1.5-2.5° C.=****)”.

Question: For `Cc1cc(OC[C@H](C)c2ccccc2)cn2nc(C(=O)NCC(C)(C)O)nc12` [Compound 317], which DSF is on record?
Answer: The DSF was “***** (>2.5° C.=*****)”.

Question: For `Cc1cc(OC[C@H](C)c2ccccc2)cn2nc(C(=O)N[C@@H]3CC[C@H]3O)nc12` [Compound 319], which DSF is on record?
Answer: Its DSF is “***** (>2.5° C.=*****)”.

Question: How did the DSF turn out when `Cc1cc(OC[C@H](C)c2ccccc2)cn2nc(C(=O)NC3CCN(c4ccnc(C(=O)O)c4)CC3)nc12` [Compound 320] was run?
Answer: Its DSF is “***** (>2.5° C.=*****)”.

Question: For `Cc1cc(OC[C@H](C)c2ccccc2)cn2nc(C(=O)NC3CCN(c4ccnc(C(=O)O)c4)C3)nc12` (stereo partly drawn) [Compound 321], which DSF is on record?
Answer: Its DSF is “***** (>2.5° C.=*****)”.

Question: How did the DSF turn out when `Cc1cc(OC[C@H](C)c2ccccc2)cn2nc(C(=O)N[C@H]3[C@H]4CN[C@@H]3C4)nc12` [Compound 322] was run?
Answer: Its DSF is “***** (>2.5° C.=*****)”.

Question: How did the DSF turn out when `Cc1cc(N2CC[C@](C)(c3ccccc3)C2)cn2nc(S(=O)(=O)NCC(C)(C)O)nc12` [Compound 323] was run?
Answer: Its DSF is “***** (>2.5° C.=*****)”.

Question: With `CNS(=O)(=O)c1nc2c(C)cc(N3CC[C@](C)(c4ccccc4)C3)cn2n1` [Compound 324] as the molecule, how does the DSF read?
Answer: The DSF was “***** (>2.5° C.=*****)”.

Question: `Cc1cc(N2CC[C@](C)(c3ccccc3)C2)cn2nc(S(=O)(=O)NC3CCNCC3)nc12` [Compound 325] was tested. Which DSF did it give?
Answer: Its DSF is “***** (>2.5° C.=*****)”.

Question: With `Cc1cc(N2CC[C@](C)(c3ccccc3)C2)cn2nc(S(=O)(=O)NC3CCNC3)nc12` (stereo partly drawn) [Compound 326] as the molecule, how does the DSF read?
Answer: The DSF was “***** (>2.5° C.=*****)”.

Question: For `Cc1cc(N2CC[C@@](c3ccccc3)(C(F)F)C2)cn2nc(C(=O)NCC(C)(C)O)nc12` [Compound 327], which DSF is on record?
Answer: Its DSF is “***** (>2.5° C.=*****)”.

Question: With `CNC(=O)c1nc2c(C)cc(N3CC[C@](c4ccccc4)(C(F)F)C3)cn2n1` [Compound 328] as the molecule, how does the DSF read?
Answer: The DSF was “**** (>1.5-2.5° C.=****)”.

Question: With `CNC(=O)c1nc2c(C)cc(N3CC[C@@](c4ccccc4)(C(F)F)C3)cn2n1` [Compound 329] as the molecule, how does the DSF read?
Answer: The DSF was “***** (>2.5° C.=*****)”.

Question: For `Cc1cc(N2CC[C@](c3ccccc3)(C(F)F)C2)cn2nc(C(=O)NC3CCN(c4ccnc(C(=O)O)c4)CC3)nc12` [Compound 330], which DSF is on record?
Answer: Its DSF is “**** (>1.5-2.5° C.=****)”.

Question: `Cc1cc(N2CC[C@@](CO)(c3ccccc3)C2)cn2nc(C(=O)N3CC[C@@]4(CCN(c5cccc(C(=O)O)n5)C4)C3)nc12` [Compound 331] was tested. Which DSF did it give?
Answer: Its DSF is “** (>0.5-1 °C =**)”.

Question: `Cc1cc(N2CC[C@](CO)(c3ccccc3)C2)cn2nc(C(=O)N3CC[C@@]4(CCN(c5cccc(C(=O)O)n5)C4)C3)nc12` [Compound 332] was tested. Which DSF did it give?
Answer: The DSF was “***** (>2.5° C.=*****)”.

Question: With `CNC(=O)c1nn2cc(N3CC[C@](C)(c4ccccc4)C3)cc(C)c2c1COC` [Compound 333] as the molecule, how does the DSF read?
Answer: The DSF was “***** (>2.5° C.=*****)”.

Question: Which DSF does the source give for `C[C@]1(c2ccccc2)CCN(c2cc(CO)c3nc(C(=O)N4CCC5(CCN(c6ccnc(C(=O)O)c6)C5)C4)nn3c2)C1` (stereo partly drawn) [Compound 334] here?
Answer: Its DSF is “***** (>2.5° C.=*****)”.

Question: Which DSF does the source give for `CNC(=O)c1nc2c(CN)cc(N3CC[C@](C)(c4ccccc4)C3)cn2n1` [Compound 335] here?
Answer: Its DSF is “***** (>2.5° C.=*****)”.

Question: `CNC(=O)c1nc2c(C(C)O)cc(N3CC[C@](C)(c4ccccc4)C3)cn2n1` (stereo partly drawn) [Compound 336] was tested. Which DSF did it give?
Answer: Its DSF is “***** (>2.5° C.=*****)”.

Question: Which DSF does the source give for `CNC(=O)c1nc2c(C(C)C)cc(N3CC[C@](C)(c4ccccc4)C3)cn2n1` [Compound 337] here?
Answer: Its DSF is “**** (>1.5-2.5° C.=****)”.

Question: Which DSF does the source give for `CNC(=O)c1nc2c(C#N)cc(N3CC[C@](C)(c4ccccc4)C3)cn2n1` [Compound 338] here?
Answer: The DSF was “* (0-0.5° C.=*)”.

Question: `CCc1cc(N2CC[C@](C)(c3ccccc3)C2)cn2nc(C(=O)NC)nc12` [Compound 339] was tested. Which DSF did it give?
Answer: Its DSF is “***** (>2.5° C.=*****)”.

Question: Which DSF does the source give for `CC(C)(O)c1cc(N2CC[C@](C)(c3ccccc3)C2)cn2nc(C(=O)NC3CCN(c4cccc(C(=O)O)n4)CC3)nc12` [Compound 340] here?
Answer: The DSF was “***** (>2.5° C.=*****)”.

Question: For `CC(O)c1cc(N2CC[C@](C)(c3ccccc3)C2)cn2nc(C(=O)NC3CC4(C3)CC(N3CC5C(C3)C5C(=O)O)C4)nc12` (stereo partly drawn) [Compound 341], which DSF is on record?
Answer: The DSF was “***** (>2.5° C.=*****)”.

Question: With `CC(O)c1cc(N2CC[C@](C)(c3ccccc3)C2)cn2nc(C(=O)NC3CCN(c4cccc(C(=O)O)n4)CC3)nc12` (stereo partly drawn) [Compound 342] as the molecule, how does the DSF read?
Answer: The DSF was “***** (>2.5° C.=*****)”.

Question: How did the DSF turn out when `C[C@]1(c2ccccc2)CCN(c2cc(CO)c3nc(C(=O)N4CCC5(CCN(c6cccc(C(=O)O)n6)C5)C4)nn3c2)C1` (stereo partly drawn) [Compound 343] was run?
Answer: The DSF was “***** (>2.5° C.=*****)”.

Question: Which DSF does the source give for `Cc1nc(C2C3COC2(c2nc4c(CO)cc(N5CC[C@](C)(c6ccccc6)C5)cn4n2)C3)n[nH]1` (stereo partly drawn) [Compound 344] here?
Answer: Its DSF is “***** (>2.5° C.=*****)”.

Question: `C[C@]1(c2ccccc2)CCN(c2cc(CN)c3nc(C(=O)N4CC[C@@]5(CCN(c6cccc(C(=O)O)n6)C5)C4)nn3c2)C1` [Compound 345] was tested. Which DSF did it give?
Answer: The DSF was “***** (>2.5° C.=*****)”.

Question: For `C[C@]1(c2ccccc2)CCN(c2cc(CO)c3nc(C(=O)NC4CC5(CCC5N5CC6C(C5)C6C(=O)O)C4)nn3c2)C1` (stereo partly drawn) [Compound 346], which DSF is on record?
Answer: The DSF was “***** (>2.5° C.=*****)”.

Question: With `C[C@@]1(c2ccccc2)CCN(c2cc(CO)c3nc(C(=O)N4CC5CN(c6cccc(C(=O)O)n6)CC5C4)nn3c2)C1` (stereo partly drawn) [Compound 347] as the molecule, how does the DSF read?
Answer: Its DSF is “***** (>2.5° C.=*****)”.

Question: With `CNC(=O)c1nc2c(CNC(C)=O)cc(N3CC[C@](C)(c4ccccc4)C3)cn2n1` [Compound 348] as the molecule, how does the DSF read?
Answer: The DSF was “***** (>2.5° C.=*****)”.

Question: How did the DSF turn out when `CCS(=O)(=O)NCc1cc(N2CC[C@](C)(c3ccccc3)C2)cn2nc(C(=O)NC)nc12` [Compound 349] was run?
Answer: The DSF was “***** (>2.5° C.=*****)”.

Question: Which DSF does the source give for `CC(C)(O)CNC(=O)c1nc2c(CO)cc(N3CC[C@](C)(c4ccccc4)C3)cn2n1` [Compound 350] here?
Answer: The DSF was “***** (>2.5° C.=*****)”.

Question: Which DSF does the source give for `CNC(=O)c1nc2c(CO)cc(N3CC[C@](C)(c4ccccc4)C3)cn2n1` [Compound 351] here?
Answer: Its DSF is “***** (>2.5° C.=*****)”.

Question: Which DSF does the source give for `C[C@]1(c2ccccc2)CCN(c2cc(CO)c3nc(C(=O)N[C@@H]4CCOC4)nn3c2)C1` [Compound 352] here?
Answer: The DSF was “***** (>2.5° C.=*****)”.

Question: `Cc1cc(N2CC[C@](C)(c3ccccc3)C2)cn2nc(C(=O)N3CCC4(CC3)COCC4N3CC4C(C3)C4C(=O)O)nc12` (stereo partly drawn) [Compound 353] was tested. Which DSF did it give?
Answer: Its DSF is “***** (>2.5° C.=*****)”.

Question: With `Cc1cc(N2CC[C@](C)(c3ccccc3)C2)cn2nc(C(=O)NC3CC(N4CC5C(C4)C5C(=O)O)C3)nc12` (stereo partly drawn) [Compound 354] as the molecule, how does the DSF read?
Answer: The DSF was “***** (>2.5° C.=*****)”.

Question: With `Cc1cc(N2CC[C@](C)(c3ccccc3)C2)cn2nc(C(=O)N3CCCC4(CC(N5CC6C(C5)C6C(=O)O)CO4)C3)nc12` (stereo partly drawn) [Compound 355] as the molecule, how does the DSF read?
Answer: The DSF was “***** (>2.5° C.=*****)”.

Question: Which DSF does the source give for `Cc1cc(N2CC[C@](C)(c3ccccc3)C2)cn2nc(C(=O)NC3CC4(C3)CC(N3CC5C(CC(=O)O)C5C3)C4)nc12` (stereo partly drawn) [Compound 356] here?
Answer: Its DSF is “***** (>2.5° C.=*****)”.
